Measurements published in article PMC7021728, “Structure of the agonist 12–HHT in its BLT2 receptor-bound state” (Scientific Reports, 2020).
Numbering of substitutions follows the chain as printed.

Experiments:
wild-type BLT2 receptor = biological target: T1, wild-type BLT2 receptor (Homo sapiens, UniProt Q9NPC1); experiment: Gi protein activation catalyzed by purified BLT2 (rate of GTPγS binding, Gαi2 intrinsic fluorescence); assay type: biochemical
T1 construct: made in house
T1 sequence (Q9NPC1 1-358): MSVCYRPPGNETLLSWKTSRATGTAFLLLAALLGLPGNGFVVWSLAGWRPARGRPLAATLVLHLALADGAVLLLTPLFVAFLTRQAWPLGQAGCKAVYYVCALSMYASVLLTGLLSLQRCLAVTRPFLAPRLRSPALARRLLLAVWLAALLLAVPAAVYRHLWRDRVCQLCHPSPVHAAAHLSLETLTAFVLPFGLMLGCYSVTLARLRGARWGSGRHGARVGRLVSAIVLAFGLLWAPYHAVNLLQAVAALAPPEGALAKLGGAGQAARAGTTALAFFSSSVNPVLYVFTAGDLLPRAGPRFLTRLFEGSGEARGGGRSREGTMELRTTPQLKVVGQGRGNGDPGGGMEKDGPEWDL
Method: Gαi2 and Gβ1γ2 were prepared as previously described. Briefly, agonist-dependent functional coupling of the purified receptor to Gαi2β1γ2 was assessed through the rate of GTPγS binding at increasing agonist concentrations determined by monitoring the relative increase in the intrinsic fluorescence ( λexcitation=300nm , λemission=345nm ) of Gαi2 (200 nM of purified G protein) in the presence of BLT2 (20 nM) in buffer containing 10 mM MOPS, pH 7.2, 130 mM NaCl, and 2 mM MgCl2 at 15 °C after the addition of 10 μM GTPγS. The data were normalized to the fluorescence maximum obtained in the presence of saturating concentrations in 12–HHT (10 μM).

BLT2 R160^4.64A = biological target: T2, BLT2 R160^4.64A (Homo sapiens, UniProt Q9NPC1, R160A); experiment: Gi protein activation catalyzed by BLT2 mutant; assay type: biochemical
T2 construct: made in house
T2 sequence (Q9NPC1 1-358 R160A): T1 sequence (Q9NPC1 1-358) with R160A
Method: (§1) All mutations were introduced in the wild-type BLT2 receptor by PCR-mediated mutagenesis using the QuickChange multisite-directed mutagenesis kit (Stratagene) and the wild-type BLT2 construct as a template. Mutations were confirmed by nucleotide sequencing. […] Gαi2 and Gβ1γ2 were prepared as previously described. […] The data were normalized to the fluorescence maximum obtained in the presence of saturating concentrations in 12–HHT (10 μM).

BLT2 P175^ECL2A = biological target: T3, BLT2 P175^ECL2A (Homo sapiens, UniProt Q9NPC1, P175A); experiment: Gi protein activation catalyzed by BLT2 mutant; assay type: biochemical
T3 construct: made in house
T3 sequence (Q9NPC1 1-358 P175A): T1 sequence (Q9NPC1 1-358) with P175A
Method: as §1

BLT2 H177^ECL2A = biological target: T4, BLT2 H177^ECL2A (Homo sapiens, UniProt Q9NPC1, H177A); experiment: Gi protein activation catalyzed by BLT2 mutant; assay type: biochemical
T4 construct: made in house
T4 sequence (Q9NPC1 1-358 H177A): T1 sequence (Q9NPC1 1-358) with H177A
Method: as §1

BLT2 T274^7.39A = biological target: T5, BLT2 T274^7.39A (Homo sapiens, UniProt Q9NPC1, T274A); experiment: Gi protein activation catalyzed by BLT2 mutant; assay type: biochemical
T5 construct: made in house
T5 sequence (Q9NPC1 1-358 T274A): T1 sequence (Q9NPC1 1-358) with T274A
Method: as §1

BLT2 [1] = test system: BLT2; design: method as in PMID 18378794; details: cited from earlier work
purified BLT2 receptor = biological target: purified BLT2 receptor; design: method as in PMID 21688157; details: cited from earlier work
BLT2 [2] = test system: BLT2; design: method as in PMID 18378794; details: membrane fractions of CHO transfected by BLT2; cited from earlier work
BLT1 = test system: BLT1; design: method as in PMID 18378794; details: in words; cited from earlier work

EC50 (wild-type BLT2 receptor; construct wt, Gi protein activation): 0.021 µM | EC50 (wild-type BLT2 receptor; wild-type): 0.021 µM | effect of the mutation on ligand binding (BLT2 R160^4.64A; R160^4.64A compared to wild-type, in words): no effect | EC50 (BLT2 R160^4.64A; construct R160^4.64A): 0.0205 µM | EC50 (BLT2 P175^ECL2A; construct P175^ECL2A): 0.0389 µM | EC50 (BLT2 H177^ECL2A; construct H177^ECL2A): 0.0243 µM | effect of the mutation on ligand binding (BLT2 T274^7.39A; T274^7.39A compared to wild-type, in words): do not impact receptor ligand properties | EC50 (BLT2 T274^7.39A; construct T274^7.39A): 0.0277 µM
Compound: CCCCC[C@H](O)/C=C/C=C/C/C=C\CCCC(=O)O [12–HHT, 12S–hydroxyheptadeca-5Z,8E,10E-trienoic acid]
effect of the mutation on ligand binding (BLT2 P175^ECL2A; P175^ECL2 to alanine compared to wild-type, in words): do not display a significant impact on ligand binding | effect of the mutation on ligand binding (BLT2 H177^ECL2A; H177^ECL2 to alanine compared to wild-type, in words): do not display a significant impact on ligand binding | affinity for BLT2 compared to LTB4 (BLT2 [1]; in cellulo measurements): about one order of magnitude | half maximal inhibitory concentration (IC50) compared to LTB4 (BLT2 [1]; membrane fractions of CHO transfected by BLT2): about one order of magnitude lower than LTB4 | Kd (purified BLT2 receptor; purified BLT2 associated with amphipols in solution, in vitro): ~0.06 µM | bound time compared with LTB4 (in vitro off-rate constant measurements) (purified BLT2 receptor; ratio 12–HHT / LTB4): 3.6 times | half maximal effective concentration (EC50) compared to LTB4 (BLT2 [2]): about one order of magnitude lower than LTB4 | binding to BLT1 (BLT1): does not bind
